Laboratory results reported in PubChem BioAssay (NCI).
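Following 48 hours of exposure in 96-well plates, responses at five concentrations were used to interpolate endpoints linearly. TGI marks complete inhibition of growth.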

Key:
Assay in all cases: DTP human tumour cell line panel, 48 h
786-0 renal = tested on: 786-0 renal
A498 renal = tested on: A498 renal
A549 NSCLC = tested on: A549 NSCLC
ACHN renal = tested on: ACHN renal
BT-549 breast = tested on: BT-549 breast
CAKI-1 renal = tested on: CAKI-1 renal
CCRF-CEM leukemia = tested on: CCRF-CEM leukemia
COLO 205 colon = tested on: COLO 205 colon
DU-145 prostate = tested on: DU-145 prostate
EKVX NSCLC = tested on: EKVX NSCLC
HCC-2998 colon = tested on: HCC-2998 colon
HCT-116 colon = tested on: HCT-116 colon
HCT-15 colon = tested on: HCT-15 colon
HL-60(TB) leukemia = tested on: HL-60(TB) leukemia
HOP-62 NSCLC = tested on: HOP-62 NSCLC
HOP-92 NSCLC = tested on: HOP-92 NSCLC
HS 578T breast = tested on: HS 578T breast
HT29 colon = tested on: HT29 colon
IGROV1 ovarian = tested on: IGROV1 ovarian
K-562 leukemia = tested on: K-562 leukemia
LOX IMVI melanoma = tested on: LOX IMVI melanoma
M14 melanoma = tested on: M14 melanoma
MALME-3M melanoma = tested on: MALME-3M melanoma
MCF7 breast = tested on: MCF7 breast
MDA-MB-231 breast = tested on: MDA-MB-231 breast
MDA-MB-435 = tested on: MDA-MB-435
MDA-N = tested on: MDA-N
MOLT-4 leukemia = tested on: MOLT-4 leukemia
NCI-H226 lung = tested on: NCI-H226 lung
NCI-H23 lung = tested on: NCI-H23 lung
NCI-H460 lung = tested on: NCI-H460 lung
NCI-H522 lung = tested on: NCI-H522 lung
NCI/ADR-RES ovarian = tested on: NCI/ADR-RES ovarian
OVCAR-3 ovarian = tested on: OVCAR-3 ovarian
OVCAR-4 ovarian = tested on: OVCAR-4 ovarian
OVCAR-5 ovarian = tested on: OVCAR-5 ovarian
OVCAR-8 ovarian = tested on: OVCAR-8 ovarian
RPMI-8226 leukemia = tested on: RPMI-8226 leukemia
RXF 393 renal = tested on: RXF 393 renal
SF-268 CNS = tested on: SF-268 CNS
SF-295 CNS = tested on: SF-295 CNS
SF-539 CNS = tested on: SF-539 CNS
SK-MEL-2 melanoma = tested on: SK-MEL-2 melanoma
SK-MEL-28 melanoma = tested on: SK-MEL-28 melanoma
SK-MEL-5 melanoma = tested on: SK-MEL-5 melanoma
SK-OV-3 ovarian = tested on: SK-OV-3 ovarian
SN12C renal = tested on: SN12C renal
SNB-19 CNS = tested on: SNB-19 CNS
SNB-75 CNS = tested on: SNB-75 CNS
SR leukemia = tested on: SR leukemia
SW-620 colon = tested on: SW-620 colon
T-47D breast = tested on: T-47D breast
TK-10 renal = tested on: TK-10 renal
U251 CNS = tested on: U251 CNS
UACC-257 melanoma = tested on: UACC-257 melanoma
UACC-62 melanoma = tested on: UACC-62 melanoma
UO-31 renal = tested on: UO-31 renal
KM12 colon = tested on: KM12 colon

COc1ccccc1-c1cc(=O)c2ccc(OC)c(OC)c2o1
TGI (786-0 renal): > 100 µM | TGI (A498 renal): > 100 µM | TGI (A549 NSCLC): > 100 µM | TGI (ACHN renal): > 100 µM | TGI (BT-549 breast): > 100 µM | TGI (CAKI-1 renal): > 100 µM | TGI (CCRF-CEM leukemia): > 100 µM | TGI (COLO 205 colon): > 100 µM | TGI (DU-145 prostate): > 100 µM | TGI (EKVX NSCLC): > 100 µM | TGI (HCC-2998 colon): > 100 µM | TGI (HCT-116 colon): > 100 µM | TGI (HCT-15 colon): > 100 µM | TGI (HL-60(TB) leukemia): > 100 µM | TGI (HOP-62 NSCLC): > 100 µM | TGI (HOP-92 NSCLC): > 100 µM | TGI (HS 578T breast): > 100 µM | TGI (HT29 colon): > 100 µM | TGI (IGROV1 ovarian): > 100 µM | TGI (K-562 leukemia): > 100 µM | TGI (LOX IMVI melanoma): > 100 µM | TGI (M14 melanoma): > 100 µM | TGI (MALME-3M melanoma): > 100 µM | TGI (MCF7 breast): > 100 µM | TGI (MDA-MB-231 breast): > 100 µM | TGI (MDA-MB-435): > 100 µM | TGI (MDA-N): > 100 µM | TGI (MOLT-4 leukemia): > 100 µM | TGI (NCI-H226 lung): > 100 µM | TGI (NCI-H23 lung): > 100 µM | TGI (NCI-H460 lung): > 100 µM | TGI (NCI-H522 lung): > 100 µM | TGI (NCI/ADR-RES ovarian): > 100 µM | TGI (OVCAR-3 ovarian): > 100 µM | TGI (OVCAR-4 ovarian): > 100 µM | TGI (OVCAR-5 ovarian): > 100 µM | TGI (OVCAR-8 ovarian): > 100 µM | TGI (RPMI-8226 leukemia): > 100 µM | TGI (RXF 393 renal): > 100 µM | TGI (SF-268 CNS): > 100 µM | TGI (SF-295 CNS): > 100 µM | TGI (SF-539 CNS): > 100 µM | TGI (SK-MEL-2 melanoma): > 100 µM | TGI (SK-MEL-28 melanoma): > 100 µM | TGI (SK-MEL-5 melanoma): > 100 µM | TGI (SK-OV-3 ovarian): > 100 µM | TGI (SN12C renal): > 100 µM | TGI (SNB-19 CNS): > 100 µM | TGI (SNB-75 CNS): > 100 µM | TGI (SR leukemia): > 100 µM | TGI (SW-620 colon): > 100 µM | TGI (T-47D breast): 75.5 µM | TGI (TK-10 renal): > 100 µM | TGI (U251 CNS): > 100 µM | TGI (UACC-257 melanoma): > 100 µM | TGI (UACC-62 melanoma): > 100 µM | TGI (UO-31 renal): > 100 µM

CC(C)C1CC[C@H](C)C[C@@H]1OC(=O)C(C(=O)O[C@H]1C[C@@H](C)CCC1C(C)C)C(O)[C@@H]1OC(C)(C)O[C@H]1C1COC(C)(C)O1 (stereo partly drawn)
TGI (786-0 renal): 31.7 µM | TGI (A549 NSCLC): 66.6 µM | TGI (ACHN renal): 32 µM | TGI (BT-549 breast): 34.2 µM | TGI (CAKI-1 renal): 34.6 µM | TGI (CCRF-CEM leukemia): 50.2 µM | TGI (COLO 205 colon): 28.2 µM | TGI (DU-145 prostate): 44.5 µM | TGI (EKVX NSCLC): 41.8 µM | TGI (HCC-2998 colon): 26.7 µM | TGI (HCT-116 colon): 23.9 µM | TGI (HCT-15 colon): 44.3 µM | TGI (HL-60(TB) leukemia): 42.2 µM | TGI (HOP-62 NSCLC): 37.5 µM | TGI (HS 578T breast): 36.5 µM | TGI (HT29 colon): 32.2 µM | TGI (IGROV1 ovarian): 30.4 µM | TGI (K-562 leukemia): 32.2 µM | TGI (KM12 colon): 31.6 µM | TGI (LOX IMVI melanoma): 35.5 µM | TGI (M14 melanoma): 37.8 µM | TGI (MALME-3M melanoma): 36 µM | TGI (MCF7 breast): 22.6 µM | TGI (MDA-MB-231 breast): 36.2 µM | TGI (MDA-MB-435): 32 µM | TGI (MDA-N): 35.4 µM | TGI (MOLT-4 leukemia): 42.8 µM | TGI (NCI-H226 lung): 41.2 µM | TGI (NCI-H23 lung): 31.9 µM | TGI (NCI-H460 lung): 32.1 µM | TGI (NCI-H522 lung): 3.95 µM | TGI (NCI/ADR-RES ovarian): 45.4 µM | TGI (OVCAR-3 ovarian): 36.2 µM | TGI (OVCAR-4 ovarian): 50.9 µM | TGI (OVCAR-5 ovarian): 31.9 µM | TGI (OVCAR-8 ovarian): 47.2 µM | TGI (RPMI-8226 leukemia): 44.6 µM | TGI (RXF 393 renal): 28.9 µM | TGI (SF-268 CNS): 42.7 µM | TGI (SF-295 CNS): 32.6 µM | TGI (SF-539 CNS): 49.5 µM | TGI (SK-MEL-2 melanoma): 38.2 µM | TGI (SK-MEL-28 melanoma): 35.4 µM | TGI (SK-MEL-5 melanoma): 29.2 µM | TGI (SK-OV-3 ovarian): 65.4 µM | TGI (SN12C renal): 30 µM | TGI (SNB-19 CNS): 29.8 µM | TGI (SNB-75 CNS): 53 µM | TGI (SR leukemia): 34.9 µM | TGI (SW-620 colon): 35.7 µM | TGI (T-47D breast): 32.3 µM | TGI (TK-10 renal): 37.1 µM | TGI (U251 CNS): 27.2 µM | TGI (UACC-257 melanoma): 78.2 µM | TGI (UACC-62 melanoma): 40.5 µM | TGI (UO-31 renal): 31.3 µM
